Experimental data taken from publication PMC6465078 (Molecular pharmaceutics, 2018).
Counter-ions that a name gives are not always drawn. Values belong to the compound of their own block, whether it stands above or below them.

What was measured:
OSTα/β [1] = target: T1, OSTα/β (Homo sapiens, UniProt Q86UW1); test: Inhibition of OSTα/β-mediated taurocholate; format: cell-based; conditions: for Inhibition of OSTα/β-mediated TCA uptake (statistical significance): Methods 1-3, method not specified; for inhibition at 100 µM: read-out: Inhibition of OSTα/β-mediated TCA uptake
T1 sequence (Q86UW1 1-340): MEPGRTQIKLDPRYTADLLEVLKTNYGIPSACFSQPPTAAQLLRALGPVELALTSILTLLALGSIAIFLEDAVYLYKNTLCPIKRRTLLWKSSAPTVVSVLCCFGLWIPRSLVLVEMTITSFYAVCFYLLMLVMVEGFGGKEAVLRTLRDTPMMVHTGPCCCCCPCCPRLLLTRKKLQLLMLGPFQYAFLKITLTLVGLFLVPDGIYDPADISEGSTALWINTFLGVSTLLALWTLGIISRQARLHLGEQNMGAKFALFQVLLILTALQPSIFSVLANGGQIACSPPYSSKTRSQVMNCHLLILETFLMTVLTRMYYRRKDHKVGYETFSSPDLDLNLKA
T1 sequence (Q86UW2 1-128 partner): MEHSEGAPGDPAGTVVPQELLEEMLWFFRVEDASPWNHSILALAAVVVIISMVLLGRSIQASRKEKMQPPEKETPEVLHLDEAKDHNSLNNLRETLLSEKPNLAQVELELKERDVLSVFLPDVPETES

OSTα/β [2] = conditions: single concentration of 100–1000 μM; cited from earlier work
OSTα/β [3] = conditions: cited from earlier work
OSTα/β [4] = target: T1, OSTα/β; test: Inhibition of OSTα/β-mediated DHEAS uptake in OSTα/β-overexpressing Flp-In 293; format: cell-based; conditions: for Inhibition of OSTα/β-mediated DHEAS uptake (screening): Method 1 (10 min preincubation), test compound 100 µM; for Inhibition of OSTα/β-mediated DHEAS uptake: inhibitor 100 µM, DHEAS 20 µM; for Maximal inhibition of OSTα/β-mediated DHEAS uptake: Method 1, up to 200 µM inhibitor
OSTα/β [5] = target: T1, OSTα/β; conditions: cell line ectopically expressing human OSTα/β; cited from earlier work
ABCC3 = conditions: cited from earlier work
OSTα/β [6] = target: T1, OSTα/β; test: Inhibition of OSTα/β-mediated digoxin uptake in OSTab cells; format: cell-based; conditions: read-out: Inhibition of OSTα/β-mediated digoxin uptake
[7] = cited from earlier work
[8] = Concentration in hepatocyte cultures; format: in vitro ADME; conditions: equivalent of ~700 ng/mg protein
ABCB11 = conditions: cited from earlier work
ABCC4 = conditions: cited from earlier work
[9] = cited from earlier work; remark: listed apart in the source
[10] = Flp-In-293, read-out: Inhibition of OSTα/β-mediated DHEAS uptake (screening)
[11] = Flp-In-293, read-out: Inhibition of OSTα/β-mediated DHEAS uptake
[12] = Method 2 (co-incubation only), 30 s uptake

- inhibition at 100 µM (OSTα/β [4]; [10]): ~19%
Compound: C[C@H]1c2cccc(O)c2C(=O)C2=C(O)[C@]3(O)C(=O)C(C(N)=O)=C(O)[C@@H](N(C)C)[C@@H]3[C@@H](O)[C@@H]21 [doxycycline]

- Inhibition of OSTα/β-mediated DHEAS uptake (screening) (OSTα/β [4]; DHEAS 4 µM, 30 s uptake): novel OSTα/β inhibitors
Compound: Cc1c(C)c2c(c(C)c1O)CCC(C)(COc1ccc(CC3SC(=O)NC3=O)cc1)O2 (centres unmarked) [troglitazone]
- IC50 for inhibition of OSTα/β-mediated DHEAS uptake (OSTα/β [4]; Method 1, 0.125–200 µM inhibitor, DHEAS 4 µM, 30 s uptake): did not yield a consistent inhibition curve

- inhibition at 100 µM (OSTα/β [4]; [10]): ~21%
Compound: CC[C@H](C)C(=O)O[C@H]1C[C@@H](C)C=C2C=C[C@H](C)[C@H](CC[C@@H]3C[C@@H](O)CC(=O)O3)[C@H]21 [lovastatin]

- Inhibition of OSTα/β-mediated TCA uptake (OSTα/β [1]; Method 2 (co-incubation only), inhibitor 100 µM, TCA 20 µM, 30 s uptake): > 70%
- inhibition at 100 µM (OSTα/β [1]): > 70%
- inhibition at 100 µM (OSTα/β [4]; [10]): 71%
- Inhibition of OSTα/β-mediated DHEAS uptake (OSTα/β [4]; Method 1 (10 min preincubation only), 30 s uptake): inhibited DHEAS uptake
- inhibition at 100 µM (OSTα/β [6]): 90%
Compound: CCc1c(Cl)c(O)c(Cl)c(O)c1C(=O)O[C@H]1[C@H](O)[C@H](OC)[C@H](OC/C2=C\C=C\C[C@H](O)/C(C)=C/[C@H](CC)[C@@H](O[C@@H]3OC(C)(C)[C@@H](OC(=O)C(C)C)[C@H](O)[C@@H]3O)/C(C)=C/C(C)=C/C[C@@H]([C@@H](C)O)OC2=O)O[C@@H]1C [fidaxomicin]
- Inhibition of OSTα/β-mediated TCA transport (OSTα/β [5]): inhibited
- Inhibition of ABCC3 (ABCC3): inhibit

- Inhibition of OSTα/β-mediated DHEAS uptake (screening) (OSTα/β [4]; DHEAS 4 µM, 30 s uptake): did not inhibit OSTα/β
Compound: CC(C)c1nc(N(C)S(C)(=O)=O)nc(-c2ccc(F)cc2)c1/C=C/[C@@H](O)C[C@@H](O)CC(=O)O [rosuvastatin]

- Inhibition of OSTα/β-mediated DHEAS uptake (screening) (OSTα/β [4]; DHEAS 4 µM, 30 s uptake): could not be reproduced
Compound: O=C1[C@H](CC[C@H](O)c2ccc(F)cc2)[C@@H](c2ccc(O)cc2)N1c1ccc(F)cc1 [ezetimibe]

- Concentration in hepatocyte cultures, molar equivalent [8]: ~ 190 µM
Compound: Cc1c(C)c2c(c(C)c1OS(=O)(=O)O)CCC(C)(COc1ccc(CC3SC(=O)NC3=O)cc1)O2 (centres unmarked) [troglitazone sulfate]
- Inhibition of OSTα/β-mediated TCA transport (OSTα/β [5]): inhibited
- Inhibition of ABCB11 (ABCB11): inhibits
- Inhibition of ABCC4 (ABCC4): inhibits
- Concentration in hepatocyte cultures [9]: ~ 700 ng/mg protein

- Inhibition of OSTα/β-mediated DHEAS uptake (screening) (OSTα/β [4]; DHEAS 4 µM, 30 s uptake): decreased
Compound: CC1(C)S[C@@H]2[C@H](NC(=O)[C@H](N)c3ccc(O)cc3)C(=O)N2[C@H]1C(=O)O [amoxicillin]
- Associated cases of DILI [7]: more than 100 cases

- inhibition at 100 µM (OSTα/β [4]; [10]): 5 to 23%
Compound: CCCN(CCC)S(=O)(=O)c1ccc(C(=O)O)cc1 [probenecid]

- Inhibition of OSTα/β-mediated TCA uptake (statistical significance) (OSTα/β [1]; inhibitor 100 µM, TCA 20 µM): did not reach statistical significance
- inhibition at 100 µM (OSTα/β [4]; [11]): ~20%
- inhibition at 100 µM (OSTα/β [4]; [10]): 5 to 23%
- Inhibition of OSTα/β-mediated DHEAS uptake (OSTα/β [4]; [12]): no inhibition
Compound: COc1ccc2c(c1)c(CC(=O)O)c(C)n2C(=O)c1ccc(Cl)cc1 [indomethacin]

- inhibition at 100 µM (OSTα/β [1]): ~20%
- inhibition at 100 µM (OSTα/β [4]; [11]): ~20%
- Inhibition of OSTα/β-mediated DHEAS uptake (OSTα/β [4]; [12]): no inhibition
Compound: CC(=O)S[C@@H]1CC2=CC(=O)CC[C@]2(C)[C@H]2CC[C@@]3(C)[C@@H](CC[C@@]34CCC(=O)O4)[C@H]12 [spironolactone]
- Inhibition of OSTα/β-mediated TCA and ES uptake (OSTα/β [2]): inhibited

The next lines start with the compound.

Compound: C[C@H](CCC(=O)NCCS(=O)(=O)O)[C@H]1CC[C@H]2[C@@H]3CC[C@@H]4C[C@H](OS(=O)(=O)O)CC[C@]4(C)[C@H]3CC[C@]12C [TLCAS, taurolithocholic acid sulfate]
- Stimulation of OSTα/β-mediated TCA uptake (OSTα/β [1]; Method 2 (co-incubation only), 100 µM, TCA 20 µM): ~ 25%
- Inhibition of OSTα/β-mediated TCA uptake (statistical significance) (OSTα/β [1]; inhibitor 100 µM, TCA 20 µM): did not reach statistical significance
- Inhibition of OSTα/β-mediated TCA and ES uptake (OSTα/β [2]): inhibited

Compound: CC(C)/N=c1\cc2n(-c3ccc(Cl)cc3)c3ccccc3nc-2cc1Nc1ccc(Cl)cc1 [clofazimine]
- OSTα/β inhibitor identification in screen of 1,280 FDA-approved drugs (OSTα/β [3]): OSTα/β inhibitor

Compound: O=C1OC(c2ccc(O)c(S(=O)(=O)O)c2)(c2ccc(O)c(S(=O)(=O)O)c2)c2c(Br)c(Br)c(Br)c(Br)c21 [sulfobromophthalein]
- inhibition at 100 µM (OSTα/β [4]; [10]): 5 to 23%

Compound: C#C[C@]1(OC(C)=O)CC[C@H]2[C@@H]3CCC4=CC(=NO)CC[C@@H]4[C@H]3CC[C@@]21CC (mixture of isomers) [norgestimate]
- inhibition at 100 µM (OSTα/β [4]; [10]): 35 to 64%
- Maximal inhibition of OSTα/β-mediated DHEAS uptake (OSTα/β [4]; DHEAS 4 µM): less than 50%
- Associated cases of DILI [7]: more than 100 cases

Compound: O=C(O)[C@H]1/C(=C/CO)O[C@@H]2CC(=O)N21 [clavulanic acid]
- Inhibition of OSTα/β-mediated DHEAS uptake (screening) (OSTα/β [4]; DHEAS 4 µM, 30 s uptake): decreased
- Associated cases of DILI [7]: more than 100 cases

Compound: C#C[C@]1(O)CC[C@H]2[C@@H]3CCc4cc(O)ccc4[C@H]3CC[C@@]21C [ethinylestradiol]
- Interaction with ABCC3 (ABCC3; ref Supporting Table 1): interact
- Interaction with ABCB11 (ABCB11; ref Supporting Table 1): interact
- Associated cases of DILI [7]: more than 100 cases

Compound: C[C@H]1O[C@@H](O[C@H]2[C@@H](O)C[C@H](O[C@H]3[C@@H](O)C[C@H](O[C@H]4CC[C@@]5(C)[C@H](CC[C@@H]6[C@@H]5C[C@@H](O)[C@]5(C)[C@@H](C7=CC(=O)OC7)CC[C@]65O)C4)O[C@@H]3C)O[C@@H]2C)C[C@H](O)[C@@H]1O [digoxin]
- inhibition at 100 µM (OSTα/β [4]; [10]): 5 to 23%

Compound: C[C@H](CCC(=O)NCC(=O)O)[C@H]1CC[C@H]2[C@@H]3[C@H](O)C[C@@H]4C[C@H](O)CC[C@]4(C)[C@H]3CC[C@]12C [glycochenodeoxycholate]
- Maximal inhibition of OSTα/β-mediated DHEAS uptake (OSTα/β [4]; DHEAS 4 µM): less than 50%
